Experimental findings from patent US11578079B2, “SUMO inhibitor compounds and uses thereof” (CITY OF HOPE, priority 2018, dated 2023) are described below.

One assay has as its system c-Myc. As to the kind of experiment: c-Myc activity (Table I, biological activities). Also on record: key: + (less active); ++ (active); +++ (most active).
The target of another assay is T1, SUMO (Homo sapiens, UniProt Q9UBT2).
T1 sequence (Q9UBT2 1-640): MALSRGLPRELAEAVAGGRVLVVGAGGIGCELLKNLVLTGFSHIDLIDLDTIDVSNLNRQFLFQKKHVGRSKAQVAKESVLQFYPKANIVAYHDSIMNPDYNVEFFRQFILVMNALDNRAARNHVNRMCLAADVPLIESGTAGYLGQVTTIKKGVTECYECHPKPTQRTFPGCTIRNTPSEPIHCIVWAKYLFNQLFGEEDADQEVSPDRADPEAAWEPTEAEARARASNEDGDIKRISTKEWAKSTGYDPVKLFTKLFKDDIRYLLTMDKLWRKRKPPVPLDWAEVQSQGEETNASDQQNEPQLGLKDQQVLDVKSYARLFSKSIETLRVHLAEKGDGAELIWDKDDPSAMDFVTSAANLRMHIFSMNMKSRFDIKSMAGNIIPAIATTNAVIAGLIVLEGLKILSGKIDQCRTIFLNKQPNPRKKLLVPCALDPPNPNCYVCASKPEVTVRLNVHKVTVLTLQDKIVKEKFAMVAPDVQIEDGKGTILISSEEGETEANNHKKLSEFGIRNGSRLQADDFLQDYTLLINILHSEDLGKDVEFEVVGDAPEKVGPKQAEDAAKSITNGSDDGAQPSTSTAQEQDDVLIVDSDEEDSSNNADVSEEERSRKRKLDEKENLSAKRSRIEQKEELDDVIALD
T1 sequence (Q9UBE0 1-346 partner): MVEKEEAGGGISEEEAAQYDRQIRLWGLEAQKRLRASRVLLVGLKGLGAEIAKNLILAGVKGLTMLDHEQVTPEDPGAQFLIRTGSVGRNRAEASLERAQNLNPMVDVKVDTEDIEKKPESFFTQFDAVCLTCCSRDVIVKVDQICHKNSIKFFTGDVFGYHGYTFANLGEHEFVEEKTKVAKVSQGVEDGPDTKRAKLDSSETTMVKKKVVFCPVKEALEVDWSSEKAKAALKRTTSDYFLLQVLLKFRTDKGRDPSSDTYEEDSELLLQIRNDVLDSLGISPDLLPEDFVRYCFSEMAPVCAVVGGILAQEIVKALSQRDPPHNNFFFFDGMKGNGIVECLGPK
In words: SUMO activity (Table I, biological activities). Format: biochemical. Also on record: key: + (less active); ++ (active); +++ (most active).

Structures are written as SMILES.

As to `CCOC(=O)C1=C(C(F)(F)F)C2C=CC1(C1OCCO1)O2` (stereo not drawn) [Compound 519], the c-Myc result with c-Myc is reported as “+”. At SUMO, the SUMO result is given as “++”.

On to `COC(=O)C1=C(C(=O)Nc2ccc(CN(C)C)c(F)c2)C2C=CC1(C(Cc1ccccc1)Nc1ccccc1)O2` (stereo not drawn) [Compound 489], for which the c-Myc entry with c-Myc is on record as “+”. At SUMO, the SUMO entry is recorded as “++”.

Consider `CCN(CC)CCNC(=O)C1=C(C(=O)OC)C2(C(Cc3ccc(Cl)cc3)Nc3cc(F)cc(F)c3)C=CC1O2` (stereo not drawn) [Compound 427], for which the c-Myc entry in the assay with c-Myc is reported as “++”. Further, the SUMO result on SUMO is “++”.

In the case of `CCOC(=O)C1=C(C(=O)NCCN(C)C)C2C=CC1(C(Cc1ccccc1)Nc1ccc(F)cc1F)O2` (stereo not drawn) [Compound 411], the c-Myc entry in the assay on c-Myc was “+”. Besides, the SUMO result on SUMO is on record as “++”.

With `COC(=O)C1=C(C(=O)NC2CCN(C(=O)c3ccc(F)cc3)CC2)C2CCC1(C(Cc1ccccc1)Nc1ccccc1)O2` (stereo not drawn) [Compound 370], the c-Myc result with c-Myc is reported as “+”. Moreover, the SUMO entry at SUMO is given as “+”.

In the case of `COC(=O)C1=C(C(=O)NC2CN(C)C2)C2C=CC1(C(Cc1ccccc1)Nc1ccccc1)O2` (stereo not drawn) [Compound 492], the c-Myc result in the assay with c-Myc was “+”. In addition, the SUMO result on SUMO is “+++”.

As to `COC(=O)C1=C(C(=O)OC)C2(C(Cc3ccccc3)N(C(=O)C(F)(F)F)c3ccccc3)C=CC1O2` (stereo not drawn) [Compound 554], in the assay on c-Myc, the c-Myc entry is reported as “++”. Moreover, at SUMO, the SUMO result was “++”.

For the compound `CC(=O)C1=CC2(C(Cc3ccccc3)Nc3ccccc3)C=CC1(C)O2` (stereo not drawn) [Compound 527], in the assay on c-Myc, the c-Myc result was “+”. Moreover, the SUMO result at SUMO is “+”.

Regarding `COC(=O)C1=C(C(=O)NCCN2CCCC2)C2C=CC1(C(Cc1ccc(C)cc1)Nc1cc(F)cc(F)c1)O2` (stereo not drawn) [Compound 442], the c-Myc entry in the assay on c-Myc is “++”. Also, on SUMO, the SUMO result was “+++”.

For the compound `COC(=O)C1=C(C(=O)OC)C2(C(CCc3ccccc3)Nc3ccccc3)C=CC1O2` (stereo not drawn) [Compound 191], the c-Myc entry in the assay on c-Myc is “+”. On SUMO, the SUMO result is recorded as “++”.

`CCCCC(Nc1ccccc1)C12C=CC(O1)C(C(=O)NC1CCN(C)CC1)=C2C(=O)OC` (stereo not drawn) [Compound 267]: the c-Myc result in the assay with c-Myc is given as “++”. In addition, on SUMO, the SUMO entry is listed as “++”.

`O=C(C1=CC2(C(Cc3ccccc3)Nc3ccccc3)C=CC1O2)c1ccc(F)cc1` (stereo not drawn) [Compound 525]: in the assay on c-Myc, the c-Myc entry is “+”. Moreover, the SUMO result on SUMO is given as “+”.

`COC(=O)C1=C(C(=O)NNc2cc(C(F)(F)F)cc(C(F)(F)F)c2)C2C=CC1(C(Cc1ccccc1)Nc1cc(F)cc(F)c1)O2` (stereo not drawn) [Compound 317]: in the assay with c-Myc, the c-Myc result is “+”. In addition, at SUMO, the SUMO entry is “+”.

On to `C=CCCC(Nc1ccccc1)C12C=CC(O1)C(C(N)=O)=C2C(=O)OC` (stereo not drawn) [Compound 177], for which the c-Myc result in the assay on c-Myc is “+”. Further, the SUMO result at SUMO is “+”.

Consider `COC(=O)C1=C(C(=O)Nc2ccc(OC)cc2)C2C=CC1(C(Cc1ccccc1)Nc1cccc(Oc3ccccc3)c1)O2` (stereo not drawn) [Compound 321], for which, in the assay on c-Myc, the c-Myc result was “+”. Moreover, the SUMO entry on SUMO was “+++”.

On to `COC(=O)C1=C(C(=O)NC2CCN(C)CC2)C2CCC1(C(Cc1ccccc1)Nc1ccccc1)O2` (stereo not drawn) [Compound 304], for which the c-Myc entry in the assay on c-Myc is on record as “+”. In addition, the SUMO result on SUMO is “+”.

For `COC(=O)C1=C(C(=O)NC2CCN(C(=O)NCc3cccnc3)CC2)C2C=CC1(C(Cc1ccccc1)Nc1ccccc1)O2` (stereo not drawn) [Compound 384], in the assay on c-Myc, the c-Myc entry is “+”. Moreover, on SUMO, the SUMO entry is given as “++”.

With `CCN(CC)CCNC(=O)C1=C(C(=O)OC)C2(C(Cc3ccccc3)Nc3ccc(F)cc3)C=CC1O2` (stereo not drawn) [Compound 375], in the assay with c-Myc, the c-Myc result is “+”. The SUMO result at SUMO was “++”.

In the case of `COC(=O)C1=C(C(=O)NCCNS(=O)(=O)c2ccccc2)C2C=CC1(C(Cc1ccccc1)Nc1ccccc1)O2` (stereo not drawn) [Compound 394], the c-Myc result in the assay with c-Myc was “+”. In addition, on SUMO, the SUMO result is “++”.

Take `COC(=O)C1=C(C(=O)Nc2ccc(OC)cc2)C2OC1(C(Cc1ccccc1)Oc1ccccc1)C1OC21` (stereo not drawn) [Compound 522]: the c-Myc entry in the assay on c-Myc is reported as “+”. Further, on SUMO, the SUMO result was “+”.

`COC(=O)C1=C(C(=O)OC)C2(C(Cc3ccc(C)cc3)Nc3cc(F)cc(F)c3)C=CC1O2` (stereo not drawn) [Compound 428]: in the assay with c-Myc, the c-Myc result is listed as “+”. The SUMO result at SUMO is “++”.
